# Source: the NIST ThermoML archive (doi:10.1021/acs.jced.5b00049)
# Numbers after ± are expanded uncertainties.
# Conditions: Liquid, Buoyancy - hydrostatic balance with magnetic suspension - one sinker
structure (smiles),measurement,setting,value
CCCCCCCCCCCCCC [tetradecane],mass density,"313.13 K, 16040 kPa",760.35 ± 0.24 kg/m3
same,mass density,"313.15 K, 14050 kPa",759.03 ± 0.24 kg/m3
same,mass density,"313.15 K, 18060 kPa",761.65 ± 0.24 kg/m3
same,mass density,"313.17 K, 19040 kPa",762.28 ± 0.24 kg/m3
same,mass density,"313.19 K, 10020 kPa",756.25 ± 0.24 kg/m3
same,mass density,"313.23 K, 12040 kPa",757.62 ± 0.24 kg/m3
same,mass density,"323.14 K, 14050 kPa",752.38 ± 0.24 kg/m3
same,mass density,"323.18 K, 12040 kPa",750.93 ± 0.24 kg/m3
same,mass density,"323.18 K, 16070 kPa",753.74 ± 0.24 kg/m3
same,mass density,"323.23 K, 18060 kPa",755.07 ± 0.24 kg/m3
same,mass density,"323.25 K, 19080 kPa",755.76 ± 0.24 kg/m3
same,mass density,"323.26 K, 10000 kPa",749.44 ± 0.24 kg/m3
same,mass density,"333.13 K, 18050 kPa",748.61 ± 0.24 kg/m3
same,mass density,"333.13 K, 19060 kPa",749.31 ± 0.24 kg/m3
same,mass density,"333.14 K, 10050 kPa",742.64 ± 0.23 kg/m3
same,mass density,"333.16 K, 12040 kPa",744.14 ± 0.24 kg/m3
same,mass density,"333.16 K, 16060 kPa",747.18 ± 0.24 kg/m3
same,mass density,"333.28 K, 14060 kPa",745.66 ± 0.24 kg/m3
same,mass density,"343.31 K, 16030 kPa",740.68 ± 0.23 kg/m3
same,mass density,"343.31 K, 19040 kPa",742.92 ± 0.23 kg/m3
same,mass density,"343.32 K, 10040 kPa",736 ± 0.23 kg/m3
same,mass density,"343.32 K, 12050 kPa",737.59 ± 0.23 kg/m3
same,mass density,"343.34 K, 18020 kPa",742.16 ± 0.23 kg/m3
same,mass density,"343.35 K, 14070 kPa",739.16 ± 0.23 kg/m3
same,mass density,"353.48 K, 16030 kPa",734.17 ± 0.23 kg/m3
same,mass density,"353.5 K, 18010 kPa",735.7 ± 0.23 kg/m3
same,mass density,"353.51 K, 19050 kPa",736.41 ± 0.23 kg/m3
same,mass density,"353.58 K, 12050 kPa",730.83 ± 0.23 kg/m3
same,mass density,"353.63 K, 10020 kPa",729.05 ± 0.23 kg/m3
same,mass density,"353.66 K, 14040 kPa",732.42 ± 0.23 kg/m3
